What was measured:
ROCK1 [1] = target: T1, ROCK1 (Homo sapiens, UniProt Q13464); assay: anti-V5 co-immunoprecipitation of SHROOM3-ROCK1 from treated WT-Sh3 HEK-293T cells; assay type: cell-based; parameters: with SHROOM3
Target sequence in this assay (Q13464 2-1354): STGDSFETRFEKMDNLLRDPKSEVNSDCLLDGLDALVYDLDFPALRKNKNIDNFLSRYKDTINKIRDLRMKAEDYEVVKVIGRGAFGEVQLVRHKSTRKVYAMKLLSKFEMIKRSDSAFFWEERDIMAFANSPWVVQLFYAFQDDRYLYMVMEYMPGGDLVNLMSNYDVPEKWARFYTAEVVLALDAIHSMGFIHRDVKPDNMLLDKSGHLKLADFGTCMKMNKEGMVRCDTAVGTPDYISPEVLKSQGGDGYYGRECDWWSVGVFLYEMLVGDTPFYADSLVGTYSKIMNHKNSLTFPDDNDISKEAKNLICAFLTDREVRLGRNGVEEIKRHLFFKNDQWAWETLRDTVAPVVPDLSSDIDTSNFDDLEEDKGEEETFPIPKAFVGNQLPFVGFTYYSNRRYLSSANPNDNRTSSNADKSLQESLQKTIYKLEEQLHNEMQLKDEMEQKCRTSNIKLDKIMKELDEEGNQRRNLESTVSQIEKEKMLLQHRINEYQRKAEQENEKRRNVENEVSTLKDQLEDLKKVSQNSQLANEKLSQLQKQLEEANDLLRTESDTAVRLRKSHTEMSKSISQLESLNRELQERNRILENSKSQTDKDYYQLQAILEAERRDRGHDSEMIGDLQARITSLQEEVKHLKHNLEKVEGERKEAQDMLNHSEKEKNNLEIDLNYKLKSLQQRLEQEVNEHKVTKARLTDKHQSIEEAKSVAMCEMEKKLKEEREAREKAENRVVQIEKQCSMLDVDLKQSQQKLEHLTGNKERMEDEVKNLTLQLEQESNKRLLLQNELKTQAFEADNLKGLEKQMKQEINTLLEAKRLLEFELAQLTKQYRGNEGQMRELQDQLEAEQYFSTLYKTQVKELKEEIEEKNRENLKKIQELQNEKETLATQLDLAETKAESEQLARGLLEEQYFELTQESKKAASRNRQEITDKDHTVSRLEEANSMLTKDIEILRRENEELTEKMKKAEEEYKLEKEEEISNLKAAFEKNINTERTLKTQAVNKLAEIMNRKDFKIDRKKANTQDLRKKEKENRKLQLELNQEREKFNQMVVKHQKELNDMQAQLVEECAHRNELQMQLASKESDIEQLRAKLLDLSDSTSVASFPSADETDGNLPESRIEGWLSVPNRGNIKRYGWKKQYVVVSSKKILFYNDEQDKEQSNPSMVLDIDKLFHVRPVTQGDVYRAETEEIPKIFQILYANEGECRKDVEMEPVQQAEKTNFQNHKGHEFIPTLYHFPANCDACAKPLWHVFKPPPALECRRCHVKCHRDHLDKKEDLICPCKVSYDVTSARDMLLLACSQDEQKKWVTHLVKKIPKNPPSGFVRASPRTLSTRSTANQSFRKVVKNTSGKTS
Target sequence in this assay (Q8TF72 whole entry partner): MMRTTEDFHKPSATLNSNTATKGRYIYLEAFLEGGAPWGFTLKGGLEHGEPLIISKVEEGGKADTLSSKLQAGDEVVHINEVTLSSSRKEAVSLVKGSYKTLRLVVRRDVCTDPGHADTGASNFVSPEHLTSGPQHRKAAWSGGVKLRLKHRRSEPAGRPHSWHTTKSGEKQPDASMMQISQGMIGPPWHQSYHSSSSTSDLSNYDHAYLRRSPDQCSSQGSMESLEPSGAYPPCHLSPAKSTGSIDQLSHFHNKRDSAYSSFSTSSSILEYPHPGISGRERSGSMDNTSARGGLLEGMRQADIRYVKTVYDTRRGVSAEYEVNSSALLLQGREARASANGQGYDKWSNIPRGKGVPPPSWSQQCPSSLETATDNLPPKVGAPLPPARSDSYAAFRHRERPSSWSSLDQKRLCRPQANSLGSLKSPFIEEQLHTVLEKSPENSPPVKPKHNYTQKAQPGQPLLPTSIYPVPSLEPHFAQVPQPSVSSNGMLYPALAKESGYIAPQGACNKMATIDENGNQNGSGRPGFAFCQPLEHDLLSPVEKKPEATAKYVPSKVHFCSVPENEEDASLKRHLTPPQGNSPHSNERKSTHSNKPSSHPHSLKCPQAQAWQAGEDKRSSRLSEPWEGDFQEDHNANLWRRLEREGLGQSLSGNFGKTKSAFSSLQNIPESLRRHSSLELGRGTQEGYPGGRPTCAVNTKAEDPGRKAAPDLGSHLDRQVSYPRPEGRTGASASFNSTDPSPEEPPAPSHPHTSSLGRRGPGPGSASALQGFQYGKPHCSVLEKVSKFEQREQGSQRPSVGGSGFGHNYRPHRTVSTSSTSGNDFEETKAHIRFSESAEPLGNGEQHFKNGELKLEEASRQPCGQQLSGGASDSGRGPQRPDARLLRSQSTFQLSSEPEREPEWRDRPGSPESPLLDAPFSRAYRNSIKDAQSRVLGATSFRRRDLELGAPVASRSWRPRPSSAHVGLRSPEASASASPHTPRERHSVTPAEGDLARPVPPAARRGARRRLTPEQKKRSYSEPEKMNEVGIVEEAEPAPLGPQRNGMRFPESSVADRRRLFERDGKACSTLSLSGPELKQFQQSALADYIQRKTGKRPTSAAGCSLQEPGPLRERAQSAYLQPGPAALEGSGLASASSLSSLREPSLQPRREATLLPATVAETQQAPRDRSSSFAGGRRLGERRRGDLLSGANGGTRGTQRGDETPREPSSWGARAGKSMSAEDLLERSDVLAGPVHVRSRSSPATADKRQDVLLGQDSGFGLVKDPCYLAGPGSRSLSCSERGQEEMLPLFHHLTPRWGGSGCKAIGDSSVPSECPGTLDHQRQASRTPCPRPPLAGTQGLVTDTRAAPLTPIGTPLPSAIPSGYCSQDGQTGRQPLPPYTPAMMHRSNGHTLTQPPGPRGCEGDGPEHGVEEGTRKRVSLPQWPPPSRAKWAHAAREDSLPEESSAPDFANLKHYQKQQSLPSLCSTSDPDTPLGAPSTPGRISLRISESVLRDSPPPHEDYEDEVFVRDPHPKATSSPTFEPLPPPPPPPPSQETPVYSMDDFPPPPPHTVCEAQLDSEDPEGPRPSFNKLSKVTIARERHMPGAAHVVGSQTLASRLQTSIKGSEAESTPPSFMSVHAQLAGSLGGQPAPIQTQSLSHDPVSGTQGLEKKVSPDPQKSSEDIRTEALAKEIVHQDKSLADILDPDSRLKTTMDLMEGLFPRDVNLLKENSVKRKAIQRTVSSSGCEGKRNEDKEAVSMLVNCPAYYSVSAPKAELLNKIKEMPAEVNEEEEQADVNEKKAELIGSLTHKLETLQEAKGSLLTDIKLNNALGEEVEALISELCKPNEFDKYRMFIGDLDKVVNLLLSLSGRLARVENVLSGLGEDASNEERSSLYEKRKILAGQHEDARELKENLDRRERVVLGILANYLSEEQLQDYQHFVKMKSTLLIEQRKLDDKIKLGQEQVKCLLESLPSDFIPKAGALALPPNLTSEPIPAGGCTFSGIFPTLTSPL

ROCK1 [2] = target: T1, ROCK1
Target sequence in this assay (Q13464 2-1354): as the sequence (Q13464 2-1354) above

SMILES | anti-V5 co-immunoprecipitation of SHROOM3-ROCK1 from treated WT-Sh3 HEK-293T cel (ROCK1 [1]) | kinase hot spot assay in the absence of SHROOM3 (Fig. S7j) (ROCK1 [2])
F[B-](F)(F)c1ccc(C2NC(=S)NC3=C2CCc2ccccc23)cc1 (centres unmarked) [D4G, potassium trifluoro (4-(2-thioxo-1,2,3,4,5,6-hexahydrobenzo [h]quinazolin-4-yl)phenyl) borate] | the interaction of SHROOM3 with ROCK1 was diminished with D4G-treatment vs DMSO-treatment in WT-Sh3 overexpressing HEK-293T | –
O=c1[nH]ccc2c(S(=O)(=O)N3CCCNCC3)cccc12 [HF, Hydroxy Fasudil] | – | HF inhibited Rock1, Rock2 (as expected), but showed significant off-target kinase inhibition (except Fyn)
